From patent US4609549A, “Biologically active substance from Islets-Activating Protein” (Kaken Pharmaceutical Co., Ltd., priority 1983, dated 1986) come the findings set out here.

Series [1] deals with Epinephrine hyperglycemia. Nature of the series: Epinephrine hyperglycemia inhibitory activity (EpI activity) one day after administration. The series is classed as in vivo. The settings on record: 12 μg/kg i.v., male Wistar rats. The method, then: IV. Epinephrine hyperglycemia inhibitory activity (EpI activity)
(§1) Each sample is intravenously injected to the male Wistar rats (about 150 g body weight) at a dose of 12 μg/kg, and after sample injection, epinephrine is subcutaneously injected to the rats under fast on a daily basis. The difference between blood sugar level before epinephrine injection and that one hour after injection is compared with the difference in the control group to thereby determine the EpI activity (%).
(§2) ΔGC : control group [(blood sugar level after epinephrine injection)-(blood sugar level before injection)]
(§3) ΔGT : sample-administered group [(blood sugar level after epinephrine injection)-(blood sugar level before injection)] [formula]
(§4) The control is non-modified IAP.

The subject of series [2] is leukocyte count. Nature of the series: Stability in methylamine solution: change with time of ΔLP activity. The series is classed as in vivo, male Wistar rats. Particulars: 3.44M methylamine solution (pH 9.5). An excerpt:
(§5) ΔLP activity=(leukocyte count in sample-administered
(§6) group)-(leukocyte count in control group)
(§7) The stability in an amine-containing alkaline solution of the modified IAP of the present invention and an IAP amidino derivative disclosed in Japanese Patent Application Laid-Open No. 129295/80 (Application No. 35877/79) was examined.

A further series can be described thus: Solubility. The series is classed as physicochemical. Particulars: pyridine, 2-mercaptoethanol, aqueous sodium dodecylsulfate and cystine. The protocol:
(§8) The powder of IAP obtained by freeze-drying the aqueous dialysed and de-salted solution is non-deliquescent, and white or light brown in colour, and is soluble in water to the extent of 3 to 5 mg/ml at room temperature. […] When IAP is put into aqueous 6N hydrochloric acid solution, a precipitate white in colour separates out. Addition of sodium sulfate, dry ice plus acetone, ethanol, trichloroacetic acid, aqueous solution of zinc chloride, or aqueous solutions containing several other kinds of metal ions to an aqueous solution of IAP at 4° C., causes the aqueous solution to become turbid and a precipitate to settle out. When IAP is put into a mixture of water and chloroform or of water and n-butanol, IAP gathers on the interface of both liquids.

The next series is described as follows: Isoelectric point. The series is classed as physicochemical. An excerpt: The isoelectric point of IAP determined by the method described in Wringley, C.W., "J. Chromatogr.", 36, 362-372 (1968) is pH 8.9±0.5.
Series [3] has as its system leukocyte count. Kind of series: Leukocytosis-promoting activity (ΔLP activity) one day after administration. The settings on record: 12 μg/kg i.v., male Wistar rats. The method, then: V. Leukocytosis-promoting activity (ΔLP activity)
Each sample is intravenously injected into male Wister rats (about 150 g body weight) at a rate of 12 μg/kg, and the leukocyte count is measured on a daily basis. The leukocyte increment is determined from the difference in leukocyte count between the sample-administered group and the control group.
as §5, §6
The pharmacological activity, acute toxicity, and stability in an alkaline solution, of the resultant products obtained in the Examples were examined in the manners described above.
as §4

The next series relates to ddY mice. Nature of the series: Acute toxicity (LD50), intravenous. The series is classed as in vivo. Particulars: i.v., ddY mice (male).
From the text: as §4

Series [4] is described as follows: Stability of IAP (heat, moisture). The series is classed as physicochemical. The method, then: as §8
In addition, when IAP is dissolved into aqueous 0.1M phosphate buffer solution of pH of 7.0 containing sodium chloride at 0.5M and the solution is subjected to dialysis against distilled water as the external liquid, the mixed solution becomes turbid once, however, with the progress of dialysis, the white turbidity disappears completely.

The subject of series [5] is pertussis 18-323 strain (I-phase). Kind of series: Infection prevention test (survival after intracerebral inoculation of live pertussis bacteria). Particulars: two weeks after inoculation. The series is classed as in vivo, Bordetella pertussis (ddY mice, male). The protocol: (ii) The IAP processed into toxoid with glutaraldehyde (hereinafter referred to as toxoid-processed IAP) used as the comparative example was prepared in the following precedures. To 0.1M phosphate buffer solution (containing 2M urea, pH 7.0) containing IAP (0.5 mg/ml) adjusted to pH 9.0 by adding 1N sodium hydroxide, was added a 25% aqueous solution of glutaraldehyde so that the final concentration of glutaraldehyde would become 0.05%. The mixed solution was reacted under stirring at room temperature for 22 hours. The resultant solution was then sufficiently dialyzed against a 0.1M phosphate buffer solution (containing 2M urea, pH 7.0) to obtain the toxoid-processed IAP.
(iii) A toxoid-processed reductively methylated IAP was also similarly prepared by using a reductively methylated IAP solution in place of an IAP solution.
There were prepared five kinds of the physiological saline solutions containing a dead pertussis vaccine (made by KAKEN PHARMACEUTICAL CO., LTD.), toxoid-processed IAP, toxoid-processed reductively methylated IAP, IAP and reductively methylated IAP, respectively, and 0.1 ml of each of these physiological saline solutions was administered into the peritoneal cavities of the ddY mice (male, 4 weeks old) (13 mice per one group). Two weeks after the administration, the live pertussis 18-323 strain (I-phase) bacteria were inoculated into the encephalon at a rate of 4×10^4cells/animal. […] Used as the control was a group of mice which were treated similarly by giving 0.1 ml of a physiological saline solution alone into the peritoneal cavity.

The subject of series [6] is Epinephrine hyperglycemia. Nature of the series: Stability in methylamine solution: change with time of EpI activity. The series is classed as in vivo, male Wistar rats. The settings on record: 3.44M methylamine solution (pH 9.5). The method, then:
as §1, §2, §3, §7

For a further series, the system named is secretion of insulin. Nature of the series: Activity of promoting the secretion of insulin. The series is classed as in vivo, mammals. From the text: The definition of the activity units used in the present invention is described in Japanese Patent Application Laying Open No. 96392/72 which corresponds to G.B. Patent No. 1,569,046.
The subject of a further series is glucose tolerance. Kind of series: Glucose tolerance. The series is classed as in vivo. The settings on record: mammals.

In general, LD50 refers to the dose expected to kill half of the subjects tested. With “IAP: Islets-Activating Protein obtained by the cultivation of suitable strain(s) of the microorganism Bordetella pertussis (Phase I or II)”, the EpI activity came to 85.0% in series [1]; 82.0% in [6] (treatment time 0 hr); 83.0% in series [6] (treatment time 24 hr); 80.5% in series [6] (treatment time 48 hr); 79.8% in series [6] (treatment time 72 hr). Also, the ΔLP activity in the series on leukocyte count [2] (treatment time 0 hr) is on record as 144 × 10^2 /mm^3; in the series with leukocyte count [2] (treatment time 24 hr), 141 × 10^2 /mm^3; with leukocyte count [2] (treatment time 48 hr) it was 138 × 10^2 /mm^3; with leukocyte count [2] (treatment time 72 hr), 139 × 10^2 /mm^3; in the series with leukocyte count [3] it was 140.1 × 10^2 /mm^3. Also, the “solubility in other solvents” value in the series “Solubility” was “soluble in pyridine, 2-mercaptoethanol and aqueous solution of sodium dodecylsulfate and of cystine”. This substance had an isoelectric point in “Isoelectric point” of 8.9±0.5 pH. This substance had an LD50 with ddY mice of 0.215 mg/kg. In addition, the “deliquescence of freeze-dried powder” value in [4] is listed as “non-deliquescent”. For the same substance, the “stability of aqueous solution on heating” value in series [4] (heated to 80° C. or higher) is recorded as “the solution becomes turbid white in colour”. The “Number of animals which survived/total number of animals tested” value was 6/13 in [5] (0.04 μg/animal i.p.), 8/13 in [5] (0.2 μg/animal i.p.) and 3/13 in series [5] (1 μg/animal i.p.). The Survival rate in [5] (0.04 μg/animal i.p.) is reported as 46%; in [5] (0.2 μg/animal i.p.), 62%; in series [5] (1 μg/animal i.p.), 23%. Moreover, in the series on secretion of insulin (after a single administration), the “duration of insulin secretion promoting and glucose tolerance improving actions” value is reported as “several weeks to several months”. Moreover, in the series with secretion of insulin (in vivo), the “activity of promoting the secretion of insulin” value is reported as “not less than 193 unit/μg”. Besides, the “activity of improving the glucose tolerance” value in the series with glucose tolerance is given as “improving the glucose tolerance in mammals”.
